This note sets out measurements from patent publication US10202370B2, “Benzimidazole derivatives as selective proteine kinase inhibitors” (AB SCIENCE, priority 2013, dated 2019).

This experiment addresses c-kit WT (Homo sapiens (Human), UniProt P10721). As to the kind of experiment: Proliferation assay (CellTiter-Blue) on BaF3 Kit WT cell line. The class given is cell-based. The settings on record: BaF3 Kit WT cell line (murine Ba/F3 expressing Human Kit WT, with murine SCF), 48 hours. The procedure:
Procedures of C-Kit WT Inhibition Assays:
Colorimetric cell proliferation and viability assay (reagent CellTiter-Blue purchased from Promega cat N°G8081) was performed on BaF3 Kit WT cell line.
A total of 2.10^4 cells/50 μl were seeded per well of a 96-wells plate. Treatment was initiated by addition of a 2× drug solution of ½ serial dilutions ranging from 0 to 10 μM. After incubating for 48 hours at 37° C., 10 μl of a ½ dilution of CellTiter-Blue reagent was added to each well and the plates were returned to the incubator for an additional 4 hours. The fluorescence intensity from the CellTiter-Blue reagent is proportional to the number of viable cells and data were recorded (544Ex/590Em) using a POLARstar OMEGA microplate reader (BMG LabteckSarl). A background control without cells was used as a blank. The positive control of the assay corresponds to the cell proliferation obtained in the absence of drug treatment (100% proliferation). Each sample was done in triplicate. The results were expressed as a percentage of the proliferation obtained in absence of treatment. All drugs were prepared as 20 mM stock solutions in DMSO and conserved at −80° C. Drug dilutions were made fresh in medium before each experiment. A DMSO control was included in each experiment.
The cell line expressing Human Kit WT was derived from the murine IL3-dependent Ba/F3 proB lymphoid cells. Ba/F3 Kit WT cells were maintained in RPMI medium containing 10% FCS and supplemented with 250 ng/ml of recombinant murine SCF.

Chain of c-kit WT (P10721 26-976): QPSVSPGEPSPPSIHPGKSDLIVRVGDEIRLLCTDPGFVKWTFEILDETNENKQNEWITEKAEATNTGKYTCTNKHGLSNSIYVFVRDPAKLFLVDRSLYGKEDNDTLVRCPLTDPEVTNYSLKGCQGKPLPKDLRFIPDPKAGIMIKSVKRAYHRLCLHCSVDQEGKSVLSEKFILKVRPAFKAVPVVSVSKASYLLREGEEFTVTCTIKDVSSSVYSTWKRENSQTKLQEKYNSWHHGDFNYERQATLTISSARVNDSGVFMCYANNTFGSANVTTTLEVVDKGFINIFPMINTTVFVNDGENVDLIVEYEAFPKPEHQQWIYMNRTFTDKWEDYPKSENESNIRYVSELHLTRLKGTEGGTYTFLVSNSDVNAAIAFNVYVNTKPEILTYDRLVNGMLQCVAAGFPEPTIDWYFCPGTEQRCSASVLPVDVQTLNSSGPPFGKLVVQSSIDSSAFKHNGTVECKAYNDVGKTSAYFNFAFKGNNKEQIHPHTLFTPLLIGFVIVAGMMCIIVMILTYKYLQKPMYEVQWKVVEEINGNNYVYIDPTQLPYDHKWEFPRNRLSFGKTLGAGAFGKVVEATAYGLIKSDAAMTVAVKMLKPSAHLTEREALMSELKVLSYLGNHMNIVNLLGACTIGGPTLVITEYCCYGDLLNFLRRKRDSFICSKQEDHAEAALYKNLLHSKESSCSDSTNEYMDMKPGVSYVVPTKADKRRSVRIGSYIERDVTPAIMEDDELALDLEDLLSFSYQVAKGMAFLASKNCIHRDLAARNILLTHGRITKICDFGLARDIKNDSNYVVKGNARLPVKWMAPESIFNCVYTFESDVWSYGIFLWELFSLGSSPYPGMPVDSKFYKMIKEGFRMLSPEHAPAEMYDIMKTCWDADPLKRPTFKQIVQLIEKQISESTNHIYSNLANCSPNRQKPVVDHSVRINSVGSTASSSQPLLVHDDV

Consider `Cc1cc2nc(-c3cccc(C(F)(F)F)c3)[nH]c2cc1Nc1nc(-c2ccncc2)cs1` [Compound 033, [6-Methyl-2-(3-trifluoromethyl-phenyl)-3H-benzoimidazol-5-yl]-(4-pyridin-4-yl-thiazol-2-yl)-amine], for which the IC50 was not above 1000 nM.

As to `Cc1cccc(-c2nc3cc(C)c(Nc4nc(-c5ccncc5)cs4)cc3[nH]2)c1` [Compound 034, (6-Methyl-2-m-tolyl-3H-benzoimidazol-5-yl)-(4-pyridin-4-yl-thiazol-2-yl)-amine], the IC50 is not above 1000 nM.

`Cc1cc2nc(-c3cc(CN4CCCCC4)cc(C(F)(F)F)c3)[nH]c2cc1Nc1nccc(-c2cccnc2)n1` [Compound 035, [6-Methyl-2-(3-piperidin-1-ylmethyl-5-trifluoromethyl-phenyl)-3H-benzoimidazol-5-yl]-(4-pyridin-3-yl-pyrimidin-2-yl)-amine] returned an IC50 not above 1000 nM.

On to `Cc1cc2nc(-c3cc(C(C)(C)C)ccc3OCCN(C)C)[nH]c2cc1Nc1nccc(-c2cccnc2)n1` [Compound 036, {2-[5-tert-Butyl-2-(2-dimethylamino-ethoxy)-phenyl]-6-methyl-3H-benzoimidazol-5-yl}-(4-pyridin-3-yl-pyrimidin-2-yl)-amine], for which the IC50 lay in the range of 1000 to 10000 nM.

In turn, `Cc1cc2nc(-c3cccc(OC(F)(F)F)c3)[nH]c2cc1Nc1nccc(-c2cccnc2)n1` [Compound 037, [6-Methyl-2-(3-trifluoromethoxy-phenyl)-3H-benzoimidazol-5-yl]-(4-pyridin-3-yl-pyrimidin-2-yl)-amine] showed an IC50 of 1000 to 10000 nM.

Turning to `Cc1cc2nc(-c3cccc(S(C)(=O)=O)c3)[nH]c2cc1Nc1nccc(-c2cccnc2)n1` [Compound 038, [2-(3-Methanesulfonyl-phenyl)-6-methyl-3H-benzoimidazol-5-yl]-(4-pyridin-3-yl-pyrimidin-2-yl)-amine], the IC50 is 1000 to 10000 nM.

In turn, `Cc1cc2nc(-c3cc(CN4CCN(C)CC4)cc(-c4cnco4)c3)[nH]c2cc1Nc1nccc(-c2cccnc2)n1` [Compound 039, {6-Methyl-2-[3-(4-methyl-piperazin-1-ylmethyl)-5-oxazol-5-yl-phenyl]-3H-benzoimidazol-5-yl}-(4-pyridin-3-yl-pyrimidin-2-yl)-amine] came in with an IC50 of 1000 to 10000 nM.

Regarding `Cc1cc2nc(-c3cc(CN4CCN(C)CC4)cc(C(F)(F)F)c3)[nH]c2cc1Nc1nccc(-c2cccnc2)n1` [Compound 040, {6-Methyl-2-[3-(4-methyl-piperazin-1-ylmethyl)-5-trifluoromethyl-phenyl]-3H-benzoimidazol-5-yl}-(4-pyridin-3-yl-pyrimidin-2-yl)-amine], the IC50 is 1000 to 10000 nM.

Molecule `Cc1cc2nc(-c3ccc(C)c(C(F)(F)F)c3)[nH]c2cc1Nc1nccc(-c2cccnc2)n1` [Compound 041, [6-Methyl-2-(4-methyl-3-trifluoromethyl-phenyl)-3H-benzoimidazol-5-yl]-(4-pyridin-3-yl-pyrimidin-2-yl)-amine] had an IC50 not above 1000 nM.

In turn, `Cc1cc2nc(-c3cncc(C(F)(F)F)c3)[nH]c2cc1Nc1nccc(-c2cccnc2)n1` [Compound 042, [6-Methyl-2-(5-trifluoromethyl-pyridin-3-yl)-3H-benzoimidazol-5-yl]-(4-pyridin-3-yl-pyrimidin-2-yl)-amine] returned an IC50 of 1000 to 10000 nM.

`Cc1cc2nc(-c3cccc(CN4CCN(C)CC4)c3)[nH]c2cc1Nc1nccc(-c2cccnc2)n1` [Compound 043, {6-Methyl-2-[3-(4-methyl-piperazin-1-ylmethyl)-phenyl]-3H-benzoimidazol-5-yl}-(4-pyridin-3-yl-pyrimidin-2-yl)-amine] had an IC50 of 1000 to 10000 nM.

In the case of `Cc1cc2nc(-c3cccc(CN4CCN(C)CC4)c3)[nH]c2cc1Nc1nc(-c2cccnc2)cs1` [Compound 044, {6-Methyl-2-[3-(4-methyl-piperazin-1-ylmethyl)-phenyl]-1H-benzoimidazol-5-yl}-(4-pyridin-3-yl-thiazol-2-yl)-amine], the IC50 was in the range of 1000 to 10000 nM.
